Here are results for 19 compounds from BindingDB's records for doi:10.1021/jm960581w (Sphinx Laboratories, 1996).

In general, pIC50 refers to −log10 of the IC50, conventionally taken in molar units.

Molecules are shown by their SMILES. pIC50: −log10 of the molar value.

The target in this assay is cAMP-dependent protein kinase catalytic subunit alpha (Bos taurus, UniProt P00517). Briefly: PKA assay. As to the method:
The activity of PKA, activated by cAMP, is measured by its ability to transfer phosphate from [gamma-32P]ATP to histone.
For `O=C(NC(COC(=O)c1cc(O)c(C(=O)c2c(O)cccc2C(=O)O)c(O)c1)Cc1ccc(O)cc1)c1ccccc1` (racemic) [2-[(2,6-dihydroxy-4-{[3-(4-hydroxyphenyl)-2-(phenylformamido)propoxy]carbonyl}phenyl)carbonyl]-3-hydroxybenzoic acid], the pIC50 was under 4.30. Under `Cc1ccc(S(=O)(=O)N2CCC[C@@H](OC(=O)c3cc(O)c(C(=O)c4c(O)cccc4C(=O)O)c(O)c3)[C@H](NC(=O)c3ccc(O)cc3)C2)cc1` [2-{[2,6-dihydroxy-4-({[(3R,4R)-3-[(4-hydroxybenzene)amido]-1-[(4-methylbenzene)sulfonyl]azepan-4-yl]oxy}carbonyl)phenyl]carbonyl}-3-hydroxybenzoic acid] stands under 3.82. Under `O=C(OC[C@@H](Cc1ccc(O)cc1)NS(=O)(=O)c1ccccc1)c1cc(O)c(C(=O)c2c(O)cccc2C(=O)O)c(O)c1` [2-[(4-{[(2R)-2-benzenesulfonamido-3-(4-hydroxyphenyl)propoxy]carbonyl}-2,6-dihydroxyphenyl)carbonyl]-3-hydroxybenzoic acid] stands under 4.30. Under `O=C(OCCCc1ccc(O)cc1)c1cc(O)c(C(=O)c2c(O)cccc2C(=O)O)c(O)c1` [2-[[2,6-Dihydroxy-4-[[[3-(4-hydroxyphenyl)propyl]oxy]carbonyl]phenyl]carbonyl]-3-hydroxybenzoic Acid] stands under 4.30. The compound `O=C(NC(COC(=O)c1cc(O)c(C(=O)c2c(O)cccc2C(=O)O)c(O)c1)Cc1ccc(O)cc1)c1ccc(O)cc1` (stereo not drawn) [(+-)-2-[[2,6-Dihydroxy-4-[[[3-(4-hydroxyphenyl)-2-[[(4-hydroxyphenyl)carbonyl]amino]propyl]oxy]carbonyl]phenyl]carbonyl]-3-hydroxybenzoic Acid] had a pIC50 of under 4.30. The value for `O=C(OCC(NS(=O)(=O)c1ccccc1)c1ccc(O)cc1)c1cc(O)c(C(=O)c2c(O)cccc2C(=O)O)c(O)c1` (racemic) [2-[(4-{[2-benzenesulfonamido-2-(4-hydroxyphenyl)ethoxy]carbonyl}-2,6-dihydroxyphenyl)carbonyl]-3-hydroxybenzoic acid] was under 4.30; that for `CS(=O)(=O)NC(COC(=O)c1cc(O)c(C(=O)c2c(O)cccc2C(=O)O)c(O)c1)Cc1ccc(O)cc1` (racemic) [(+-)-2-[[2,6-Dihydroxy-4-[[[3-(4-hydroxyphenyl)-2-[(methylsulfonyl)amino]propyl]oxy]carbonyl]phenyl]carbonyl]-3-hydroxybenzoic Acid] was under 4.30; that for `O=C(OCC(Cc1ccc(O)cc1)NS(=O)(=O)c1ccccc1)c1cc(O)c(C(=O)c2c(O)cccc2C(=O)O)c(O)c1` (racemic) [(+-)-2-[[2,6-Dihydroxy-4-[[[3-(4-hydroxyphenyl)-2-[(phenylsulfonyl)amino]propyl]oxy]carbonyl]phenyl]carbonyl]-3-hydroxybenzoic Acid] was under 4.30. Under `O=C(O[C@@H]1CCC[C@H]1Oc1ccc(O)cc1)c1cc(O)c(C(=O)c2c(O)cccc2C(=O)O)c(O)c1` (racemic) [2-{[2,6-dihydroxy-4-({[(1R,2R)-2-(4-hydroxyphenoxy)cyclopentyl]oxy}carbonyl)phenyl]carbonyl}-3-hydroxybenzoic acid] stands under 4.30; under `O=C(O[C@@H]1CCC[C@@H]1Cc1ccc(O)cc1)c1cc(O)c(C(=O)c2c(O)cccc2C(=O)O)c(O)c1` [2-{[2,6-dihydroxy-4-({[(1R,2R)-2-[(4-hydroxyphenyl)methyl]cyclopentyl]oxy}carbonyl)phenyl]carbonyl}-3-hydroxybenzoic acid], under 4.30. As for `O=C(OCCCCc1ccc(O)cc1)c1cc(O)c(C(=O)c2c(O)cccc2C(=O)O)c(O)c1` [2-[(2,6-dihydroxy-4-{[4-(4-hydroxyphenyl)butoxy]carbonyl}phenyl)carbonyl]-3-hydroxybenzoic acid], the pIC50 is under 4.30. In turn, `O=C(OCC(COc1ccc(O)cc1)NS(=O)(=O)c1ccccc1)c1cc(O)c(C(=O)c2c(O)cccc2C(=O)O)c(O)c1` (racemic) [2-[(4-{[2-benzenesulfonamido-3-(4-hydroxyphenoxy)propoxy]carbonyl}-2,6-dihydroxyphenyl)carbonyl]-3-hydroxybenzoic acid] showed a pIC50 of under 4.30.

In turn, `O=C(OCC(Cc1ccc(O)cc1)NS(=O)(=O)c1ccc2ccccc2c1)c1cc(O)c(C(=O)c2c(O)cccc2C(=O)O)c(O)c1` (stereo not drawn) [(+-)-2-[[2,6-Dihydroxy-4-[[[3-(4-hydroxyphenyl)-2-[(naphthylsulfonyl)amino]propyl]oxy]carbonyl]phenyl]carbonyl]-3-hydroxybenzoic Acid] gave a pIC50 of under 4.30.

In the case of `O=C(O[C@@H]1CCC[C@H]1Cc1ccc(O)cc1)c1cc(O)c(C(=O)c2c(O)cccc2C(=O)O)c(O)c1` (racemic) [2-{[2,6-dihydroxy-4-({[(1R,2S)-2-[(4-hydroxyphenyl)methyl]cyclopentyl]oxy}carbonyl)phenyl]carbonyl}-3-hydroxybenzoic acid], the pIC50 was under 4.30. `COC(=O)c1cccc(O)c1C(=O)c1c(O)cc(C(=O)O[C@@H]2CCC[C@H]2Cc2ccc(O)cc2)cc1O` [(1R,2S)-2-[(4-hydroxyphenyl)methyl]cyclopentyl 3,5-dihydroxy-4-{[2-hydroxy-6-(methoxycarbonyl)phenyl]carbonyl}benzoate]: the pIC50 was under 4.30. The value for `CC(CCc1ccc(O)cc1)OC(=O)c1cc(O)c(C(=O)c2c(O)cccc2C(=O)O)c(O)c1` (stereo not drawn) [(+-)-2-[[2,6-Dihydroxy-4-[[[3-(4-hydroxyphenyl)-1-methylpropyl]oxy]carbonyl]phenyl]carbonyl]-3-hydroxybenzoic Acid] was under 4.30. The value for `CN(C)C(COC(=O)c1cc(O)c(C(=O)c2c(O)cccc2C(=O)O)c(O)c1)Cc1ccc(O)cc1` (racemic) [2-[(4-{[2-(dimethylamino)-3-(4-hydroxyphenyl)propoxy]carbonyl}-2,6-dihydroxyphenyl)carbonyl]-3-hydroxybenzoic acid] was under 4.30; that for `COC(=O)c1cccc(O)c1C(=O)c1c(O)cc(C(=O)OC[C@H](Cc2ccc(O)cc2)NS(=O)(=O)c2ccccc2)cc1O` [(S)-Methyl 2-[[2,6-Dihydroxy-4-[[[3-(4-hydroxyphenyl)-2-[(phenylsulfonyl)amino]propyl]oxy]carbonyl]phenyl]carbonyl]-3-hydroxybenzoate] was under 4.30; that for `O=C(OC[C@H](Cc1ccc(O)cc1)NS(=O)(=O)c1ccccc1)c1cc(O)c(C(=O)c2c(O)cccc2C(=O)O)c(O)c1` [2-[(4-{[(2S)-2-benzenesulfonamido-3-(4-hydroxyphenyl)propoxy]carbonyl}-2,6-dihydroxyphenyl)carbonyl]-3-hydroxybenzoic acid] was under 4.30.
